Experiments:
[1] = triterpenic acid content of basic aqueous solution with cyclodextrins (Example 4); type: physicochemical; settings: water with trisodium phosphate (10 mM) and 2 mg/mL cyclodextrins, 120° C. and >2 bar
Experimental: The triterpenoid-rich powder described in Example 1 was extracted with water in the presence of trisodium phosphate (10 mM) and 2 mg/mL cyclodextrins at 120° C. and >2 bar.
The basic triterpenic acid-rich solution contained more than 100 μg/mL oleanolic acid and more than 8 μg/mL betulinic acid. The basic solution thus prepared was then adjusted to pH 7.4 using an aqueous phosphoric acid solution. The extent of dilution and the solvent quantities were selected in such away that the salt concentration of the neutralized triterpenic acid-rich solution was between 5 and 140 mM.

[2] = triterpenic acid content of basic aqueous solution (trisodium phosphate extraction, Example 1); type: physicochemical; settings: water with trisodium phosphate, extracted at 120° C. and >2 bar, cooled to room temperature, filtered through 0.22 μm filter
Experimental: Dried annual shoots of mistletoe were extracted with n-heptane at 120° C. and >2 bar pressure. The precipitate obtained upon cooling of the extraction agent was composed of more than 60% oleanolic acid and more than 3% betulinic acid. The triterpenic acid-rich powder thus obtained was extracted with water in the presence of trisodium phosphate at 120° C. and >2 bar pressure to produce a supersaturated basic solution.
The basic triterpenoid-rich solution, cooled to room temperature and filtered through a 0.22 μm filter, contained more than 80 μg/mL oleanolic acid and more than 8 μg/mL betulinic acid. The basic solution thus prepared was then adjusted to pH 7.4 using an aqueous phosphoric acid solution, in the presence of 1.6 μg/mL polysaccharides which had been obtained from mistletoe berries. The extent of dilution and the solvent quantities were selected in such a way that the salt concentration of the neutralized triterpenic acid-rich solution was between 5 and 140 mM.

Question: With `CC1(C)CC[C@]2(C(=O)O)CC[C@]3(C)C(=CC[C@@H]4[C@@]5(C)CC[C@H](O)C(C)(C)[C@@H]5CC[C@]43C)[C@@H]2C1` [oleanolic acid] as the compound, how does the “content in basic triterpenic acid-rich solution” value [1] read?
Answer: more than 100 μg/mL

Question: What about the “content in basic triterpenoid-rich solution” value [2] of the same compound?
Answer: more than 80 μg/mL

From patent US20100104669A1, “Method for preparing an aqueous solution containing triterpenic acid, aqueous solution containing triterpenic acid, and use thereof” (priority 2008, published 2010)
